Test results taken from the NIST ThermoML archive (doi:10.1016/j.tca.2013.05.015).

Assay: mn = molality of the nth substance listed, in mol/kg
Conditions: 101 kPa, Liquid; for speed of sound: Sing-around technique in a fixed-path interferometer; for mass density: Vibrating tube method

CCCCCCCC[N+](C)(CCCCCCCC)CCCCCCCC.O=S(=O)([N-]S(=O)(=O)C(F)(F)F)C(F)(F)F + CCOC(C)=O
Conditions	mass density, 298.15 K [kg/m3]	mass density, 303.15 K [kg/m3]	mass density, 308.15 K [kg/m3]	mass density, 313.15 K [kg/m3]	speed of sound, 298.15 K [m/s]	speed of sound, 303.15 K [m/s]	speed of sound, 308.15 K [m/s]	speed of sound, 313.15 K [m/s]
m1 = 0.0193	897	891.1	885.3	878.9	1142	1119	1097	1074
m1 = 0.0434	900	894.1	888.3	882	1143	1120	1098	1076
m1 = 0.0692	903	897.1	891.3	885	1144	1122	1104	1077
m1 = 0.1377	910.7	904.8	899.1	892.9	1149	1125	1107	1080
m1 = 0.2691	923.8	918	912.4	906.5	1152	1128	1110	1083
m1 = 0.4006	935.1	929.4	924	918.3	1155	1131	1113	1086
m1 = 0.6119	950.4	944.9	939.7	934.5	1161	1140	1116	1092
m1 = 0.8299	963.4	958.3	953.3	948.4	1164	1146	1122	1098
m1 = 1.006	972.5	967.5	962.6	957.9	1170	1158	1128	1107
m1 = 1.28	984.5	979.7	974.8	970.2	1179	1161	1137	1113
m1 = 2.132	1011.1	1006.9	1001.9	997	1200	1170	1152	1131
m1 = 2.999	1029.3	1025.5	1019.5	1013.8	1206	1182	1161	1140
